Measurements as given in patent publication US8895561B2, “Compounds and methods for treating candidiasis and aspergillus infections” (Cellceutix Corporation, priority 2012, dated 2014).
Converted amounts (≈) assume the structure as drawn. Read-outs that look alike come from different tables or passages of the source.

Experiments:
[1] = Cytotoxicity, MTS viability assay; assay type: cell-based, human; settings: Table 6
Protocol: (§1) Candida IC50s were determined by OD600 and fluorescence from vegetative cells and by MTS viability assay in the hyphal state. MICs were determined using a broth microdilution assay under standard CLSI conditions Bacteria strains: E. coli 25922 (EC), S. aureus 27660 (SA), E. faecalis 29212 (EF), P. aeruginosa 10145 (PA), and K. pneumoniae 13883 (KP). Cytotoxicity (EC50) was determined against mouse 3T3 fibroblasts, human transformed liver HepG2 cells, and human oral keratinocyte cell line, OKF6/TERT using an MTS viability assay. Candida IC50s<10 μg/mL, MICs<5 μg/mL and cytotoxicity EC50s>100 μM are indicated in green. MICs>5 μg/mL and cytotoxicity EC50s<100 μM are indicated in red.
(§2) Candida IC50s (CA) were determined by OD600 and fluorescence from vegetative cells. MICs were determined using a broth microdilution assay under standard CLSI conditions Bacteria strains: E. coli 25922 (EC), S. aureus 27660 (SA), E. faecalis 29212 (EF), P. aeruginosa 10145 (PA), and K. pneumoniae 13883 (KP). Cytotoxicity (EC50) was determined against mouse 3T3 fibroblasts and human transformed liver HepG2 cells using an MTS viability assay.
(§3) CLSI conditions Bacteria strains: clinical isolates; yeast strains: C. dubliniensis (NCPF3949), C. glabrata (ATCC 90030), C. krusei (ATCC 6258), C. parapsilosis (ATCC 22019), and C. tropicalis (ATCC 750). Cytotoxicity (EC50) was determined against mouse 3T3 fibroblasts, human transformed liver HepG2 cells, and human oral keratinocyte cell line, OKF6/TERT using an MTS viability assay.

C. albicans GDH2346 = experiment: Candida IC50, vegetative cells, by OD600 and fluorescence; assay type: cell-based; settings: for IC50: Candida albicans, GDH2346
Protocol: as §1, with “red. Candida IC50s (CA) were determined by OD600 and fluorescence from vegetative cells. MICs were determined using a broth microdilution assay under standard CLSI conditions Bacteria strains: E. coli 25922 (EC), S. aureus 27660 (SA), E. faecalis 29212 (EF), P. aeruginosa 10145 (PA), and K. pneumoniae 13883 (KP). Cytotoxicity (EC50) was determined against mouse 3T3 fibroblasts and human transformed liver HepG2 cells using an MTS viability assay. For determination of anti-Candida IC50s, the method was modified by using RPMI/MOPS buffer pH 6.3 and by addition of FDGlu, a substrate for the yeast enzyme exoglucanase which is secreted during cell growth. This provides a fluorescent readout for cell growth which was used in addition to the traditional optical density measure of growth. OD600 and fluorescence were determined at 24 and 48 hours and the average of all 4 reads was used for the final IC50 determination.” for “red.”

A. fumigatus (A1163) = experiment: Anti-Aspergillus screen, CLSI M38-A, visual inhibition of growth; assay type: cell-based; settings: screening concentration 10 μM, 24-48 hours
Protocol: (§4) The in vitro efficacy of a library of compounds was assessed for antifungal activity against A. niger (AN1), A. fumigatus ([…]) and A. flavus (NRRL3357) and compared to that of Itraconazole. For a subset of compounds selected based upon efficacy in the screening study a full MIC profile was conducted. Efficacy of test articles was determined in RPMI 1640 broth with MOPS buffered to pH7.2 in accordance with CLSI guidelines M38-A for Antifungal Susceptibility Testing of Filamentous Fungi. The method was modified by using flat well plates to allow microscopic identification of growth. The final screening concentration of each test article was 10 μM. Assay plates were incubated aerobically at 37° C. for 24-48 hours. Following incubation, plates were assessed visually (by eye and microscopically) for inhibition of growth. Inhibition was recorded at 50%, 80% and 100% inhibition compared to the positive control.

A. niger (AN1) = experiment: as above; assay type: cell-based; settings: screening concentration 10 μM, 24-48 hours
Protocol: as §4

A. flavus (NRRL3357) = experiment: as above; assay type: cell-based; settings: screening concentration 10 μM, 24-48 hours
Protocol: as §4

mouse 3T3 fibroblasts = experiment: Cytotoxicity, MTS viability assay; assay type: cell-based
Protocol: as §1, §2, §3

[2] = tested on: human transformed liver HepG2 cells; experiment: Cytotoxicity, MTS viability assay; assay type: cell-based
Protocol: as §1, §2, §3

[3] = tested on: human oral keratinocyte cell line, OKF6/TERT; experiment: Cytotoxicity, MTS viability assay; assay type: cell-based
Protocol: as §1, §3

[4] = tested on: C. albicans GDH2346 hyphal biofilm; experiment: Candida IC50 in the hyphal state / hyphal biofilm, MTS viability assay; assay type: cell-based; settings: Candida albicans; hyphal state; read-out: IC50 Candida, Hyphal
Protocol: Candida IC50s were determined by OD600 and fluorescence from vegetative cells and by MTS viability assay in the hyphal state. MICs were determined using a broth microdilution assay under standard CLSI conditions Bacteria strains: E. coli 25922 (EC), S. aureus 27660 (SA), E. faecalis 29212 (EF), P. aeruginosa 10145 (PA), and K. pneumoniae 13883 (KP). Cytotoxicity (EC50) was determined against mouse 3T3 fibroblasts, human transformed liver HepG2 cells, and human oral keratinocyte cell line, OKF6/TERT using an MTS viability assay. Candida IC50s<10 μg/mL, MICs<5 μg/mL and cytotoxicity EC50s>100 μM are indicated in green. MICs>5 μg/mL and cytotoxicity EC50s<100 μM are indicated in red. To form the biofilm, yeast were grown in RPMI/MOPS, 0.4% sucrose pH7.4 media supplemented with 10% FBS in tissue culture-treated flat bottom 96 well plates for 48 hours. The filamentous yeast cultures were then vigorously washed to remove any non-filamentous, non-attached yeast. The remaining attached filamentous biofilm yeast were incubated in saline containing serially diluted compounds for 24 hours. The cultures were aspirated to remove compound, rinsed and overlayed with RPMI/MOPS, 0.4% sucrose pH7.4 media. Biofilm viability was measured using a cell proliferation assay (CellTiter96 Aqueous Kit from Promega) and IC50s were determined using Prism GraphPad software (nonlinear fit, Table 3).

K. pneumoniae 13883 = experiment: Bacterial MIC, broth microdilution, CLSI; assay type: cell-based; settings: Klebsiella pneumoniae
Protocol: as §1, with “red. Candida IC50s (CA) were determined by OD600 and fluorescence from vegetative cells. MICs were determined using a broth microdilution assay under standard CLSI conditions Bacteria strains: E. coli 25922 (EC), S. aureus 27660 (SA), E. faecalis 29212 (EF), P. aeruginosa 10145 (PA), and K. pneumoniae 13883 (KP). Cytotoxicity (EC50) was determined against mouse 3T3 fibroblasts and human transformed liver HepG2 cells using an MTS viability assay.” for “red.”

S. aureus 27660 = experiment: Bacterial MIC, broth microdilution, CLSI; assay type: cell-based
Protocol: as §1, with “red. Candida IC50s (CA) were determined by OD600 and fluorescence from vegetative cells. MICs were determined using a broth microdilution assay under standard CLSI conditions Bacteria strains: E. coli 25922 (EC), S. aureus 27660 (SA), E. faecalis 29212 (EF), P. aeruginosa 10145 (PA), and K. pneumoniae 13883 (KP). Cytotoxicity (EC50) was determined against mouse 3T3 fibroblasts and human transformed liver HepG2 cells using an MTS viability assay.” for “red.”

E. faecalis 29212 = experiment: Bacterial MIC, broth microdilution, CLSI; assay type: cell-based
Protocol: as §1, with “red. Candida IC50s (CA) were determined by OD600 and fluorescence from vegetative cells. MICs were determined using a broth microdilution assay under standard CLSI conditions Bacteria strains: E. coli 25922 (EC), S. aureus 27660 (SA), E. faecalis 29212 (EF), P. aeruginosa 10145 (PA), and K. pneumoniae 13883 (KP). Cytotoxicity (EC50) was determined against mouse 3T3 fibroblasts and human transformed liver HepG2 cells using an MTS viability assay.” for “red.”

E. coli 25922 = experiment: Bacterial MIC, broth microdilution, CLSI; assay type: cell-based
Protocol: as §1, with “red. Candida IC50s (CA) were determined by OD600 and fluorescence from vegetative cells. MICs were determined using a broth microdilution assay under standard CLSI conditions Bacteria strains: E. coli 25922 (EC), S. aureus 27660 (SA), E. faecalis 29212 (EF), P. aeruginosa 10145 (PA), and K. pneumoniae 13883 (KP). Cytotoxicity (EC50) was determined against mouse 3T3 fibroblasts and human transformed liver HepG2 cells using an MTS viability assay.” for “red.”

P. aeruginosa 10145 = experiment: Bacterial MIC, broth microdilution, CLSI; assay type: cell-based
Protocol: as §1, with “red. Candida IC50s (CA) were determined by OD600 and fluorescence from vegetative cells. MICs were determined using a broth microdilution assay under standard CLSI conditions Bacteria strains: E. coli 25922 (EC), S. aureus 27660 (SA), E. faecalis 29212 (EF), P. aeruginosa 10145 (PA), and K. pneumoniae 13883 (KP). Cytotoxicity (EC50) was determined against mouse 3T3 fibroblasts and human transformed liver HepG2 cells using an MTS viability assay.” for “red.”

[5] = human, HepG2 cells (transformed liver), read-out: Cytotoxicity EC50 Human HepG2
[6] = mouse, 3T3 fibroblasts, read-out: Cytotoxicity EC50 Mouse 3T3
[7] = Table 6, read-out: IC50 C. albicans

Question: For `COc1cc(SCCNC(=N)N)c(C(F)(F)F)cc1NC(=O)c1cc(C(=O)Nc2cc(C(F)(F)F)c(SCCNC(=N)N)cc2OC)nc(SCCNC(=N)N)n1` [Cmpd 183], which EC50 [1, 5] is on record?
Answer: The EC50 was at least 1000 µM.

Question: What about the EC50 [1, 6] of the same compound?
Answer: Its EC50 is 478 µM.

Question: What about the IC50 (C. albicans GDH2346; [7]) of the same compound?
Answer: The IC50 was 2 µg/mL (≈ 2.31 µM).

Question: And the inhibition at 10 µM (A. fumigatus (A1163))?
Answer: The inhibition at 10 µM was 100%.

Question: What about the inhibition at 10 µM (A. niger (AN1)) of the same compound?
Answer: The inhibition at 10 µM was 100%.

Question: What about the inhibition at 10 µM (A. flavus (NRRL3357)) of the same compound?
Answer: The inhibition at 10 µM was 100%.

Question: With `COc1ccc(CNC(=N)N)cc1NC(=O)c1cc(C(=O)Nc2cc(CNC(=N)N)ccc2OC)c(OCCC(C)C)cc1OCCC(C)C` [Cmpd 184] as the compound, how does the EC50 [1, 5] read?
Answer: The EC50 was 155 µM.

Question: And the EC50 [1, 6]?
Answer: Its EC50 is at least 1000 µM.

Question: And the IC50 (C. albicans GDH2346; [7])?
Answer: The IC50 was 3.1 µg/mL (≈ 4.49 µM).

Question: What about the inhibition at 10 µM (A. fumigatus (A1163)) of the same compound?
Answer: Its inhibition at 10 µM is 100%.

Question: And the inhibition at 10 µM (A. niger (AN1))?
Answer: The inhibition at 10 µM was 100%.

Question: What about the inhibition at 10 µM (A. flavus (NRRL3357)) of the same compound?
Answer: The inhibition at 10 µM was 100%.

Question: Which results are given for `NCCCOc1cccc(-n2cc(-c3ccc4ccc(-c5cn(-c6cccc(OCCCN)c6)nn5)cc4c3)nn2)c1` [Compound 138]?
Answer: IC50 (mouse 3T3 fibroblasts; Mus musculus, NIH3T3, cytotoxicity): 406 µM; IC50 ([2]; Homo sapiens, HepG2, cytotoxicity): 502 µM; IC50 (C. albicans GDH2346; vegetative cells, read-out: IC50 Candida, Vegetative): 4.1 µg/mL (≈ 7.31 µM); IC50 [3]: 491 µM; IC50 [4]: 7.5 µg/mL (≈ 13.4 µM); EC50 (K. pneumoniae 13883): > 50 µg/mL; EC50 (S. aureus 27660; Staphylococcus aureus, S. aureus 27660): > 50 µg/mL; EC50 (E. faecalis 29212; Enterococcus faecalis, E. faecalis 29212): > 50 µg/mL; EC50 (E. coli 25922; Escherichia coli, E. coli 25922): > 50 µg/mL; EC50 (P. aeruginosa 10145; Pseudomonas aeruginosa, P. aeruginosa 10145): > 50 µg/mL

Question: Which EC50 (mouse 3T3 fibroblasts) does the source give for `NCCCn1c2cc(-c3ccc(CCN)c(CCN)c3)ccc2c2ccc(-c3ccc(CCN)c(CCN)c3)cc21` [Compound 159] here?
Answer: The EC50 was 61 µM.

Question: What about the EC50 [2] of the same compound?
Answer: Its EC50 is 64 µM.

Question: What about the “CA (Candida IC50)” value (C. albicans GDH2346; vegetative cells) of the same compound?
Answer: The value was 2.11 µg/mL.

Question: What about the “SA (MIC)” value (S. aureus 27660) of the same compound?
Answer: The value was 0.78 µg/mL.

Question: And the “EF (MIC)” value (E. faecalis 29212)?
Answer: Its value is 3.13 µg/mL.

Question: What about the “EC (MIC)” value (E. coli 25922) of the same compound?
Answer: The value was 0.78 µg/mL.

Question: What about the “PA (MIC)” value (P. aeruginosa 10145) of the same compound?
Answer: Its value is 6.25 µg/mL.
